These results are taken from patent publication US10143691B2, “Pathogenic control of apoptosis” (CSIR, priority 2014, dated 2018).

“Also recorded” adds a separate entry of the source. Where two headings read alike, the source gives them in different places.

What all share (format): cell-based
Assay [1] relates to p53pSer46. Put plainly: Immunofluorescence staining of p53pSer46 apoptotic mark. The note with it: Ghost(3) cells, Doxorubicin 500 nM, no HIV. The procedure: (§1) For each experiment, Ghost(3) cells or IPSC-derived primary macrophages were infected or treated with 500 nM Doxorubicin on coverslips, fixed for 10 mins in fresh 4% paraformaldehyde at room temperature, then washed 3 times in PBS and permeabilised for 10 mins in ice-cold methanol at […]. Coverslips were washed once in PBS and incubated in blocking buffer (5% goat serum, 0.3% TritonX100 in PBS) for 60 mins at room temperature. Cells were incubated in primary antibody solution (1% BSA, 0.3% Triton X100 in PBS) overnight at 4° C. Double strand breaks were detected using rabbit polyclonal anti-phosphohistone H2A.X Ser139 (Cell Signaling). Activated ATM was detected using rabbit monoclonal anti-phosphoATM Ser1981 (Cell Signaling). The ability of p53 to regulate apoptosis was detected using rabbit polyclonal antiphosphop53 Ser46 (Cell Signaling). Viral p24 was detected using mouse monoclonal anti-HIV1p24 (AIDS Research and Reference Reagent Program, Division of AIDS, NIAID, NIH). HuR was detected using mouse monoclonal anti-HuR 3A2 (Santa Cruz Biotechnology). hnRNPK was detected using goat polyclonal anti-hnRNPK P20 (Santa Cruz Biotechnology). Coverslips were washed 3 times (5 mins each on an orbital shaker) with wash buffer (0.05% Tween20 in PBS), followed by incubation with secondary antibodies conjugated to either Atto550 or Atto565 or Atto647 for 60 mins at room temperature. […]

The subject of assay [2] is Ghost(3) cells. As to the method:
Apoptosis was measured in Ghost(3) cells 30 hours post-infection or drug treatment using the NucView™ 488 Caspase3 Assay Kit (Biotium) in a 96 well format. Data was analysed in MATLAB using a probabilistic region method to measure cell attachment and expressed as percentage cell survival. […] An average of 3000 cells per condition were analysed with the exception of cells treated with Doxorubicin followed by HIV-infection (FIG. 3), cells transfected with lincRNAp21 overexpression constructs followed by Doxorubicin treatment, and cells transfected with full-length lincRNAp21, infected with HIV1 and treated with Nutlin3 (FIG. 25). These latter conditions ( ? ) yielded too few attached cells (<20) at 30 hours for similar analysis.
Apoptosis was measured in Ghost(3) cells 30 hours post-infection or drug treatment using the NucView™ 488 Caspase-3 Assay Kit (Biotium) in a 96 well format. Data was analysed in MATLAB using a probabilistic region method to measure cell attachment and expressed as percentage cell survival. […] An average of 3000 cells per condition were analysed with the exception of cells treated with Doxorubicin followed by HIV-infection (FIG. 27), cells transfected with lincRNA-p21 overexpression constructs followed by Doxorubicin treatment (FIG. 36), and cells transfected with full-length lincRNA-p21, infected with HIV-1 and treated with Nutlin3 (FIG. 45). These latter conditions ( ? ) yielded too few attached cells (<20) at 30 hours for similar analysis.

Assay [3] concerns hnRNP-K. Put plainly: Immunofluorescence of hnRNP-K cellular location in iPSC-derived macrophages. To be noted: iPSC-derived (primary) macrophages, Doxorubicin-treated, no HIV. As to the method:
as §1

In the case of `COc1cccc2c1C(=O)c1c(O)c3c(c(O)c1C2=O)C[C@@](O)(C(=O)CO)C[C@@H]3O[C@H]1C[C@H](N)[C@H](O)[C@H](C)O1` [Doxorubicin], the “phosphorylation of p53 at Ser46” value in assay [1] is “phosphorylation of both ATMpSer1981 and p53pSer46 in the nucleus within 8 hours; also recorded: Activated p53 dimers are detected”. Besides, the percentage cell survival in assay [2] (Ghost(3) cells infected with HIV-1 24 hours before the same duration of Doxorubicin treatment) was found to be 60%; in assay [2] (Ghost(3) cells, Doxorubicin only (lethal dose), no HIV), 32%. For the same compound, the apoptosis entry in assay [2] (Ghost(3) cells infected with HIV-1 24 hours prior to Doxorubicin treatment) is on record as “do not undergo apoptosis”; in assay [2] (Ghost(3) cells that received Doxorubicin prior to HIV-1 infection), “underwent apoptosis; also recorded: do undergo apoptosis”; in assay [2] (cells concurrently infected and treated with Maraviroc, Tenofovir or Raltegravir, Doxorubicin added 24 hours later) it was “the cells underwent apoptosis”; in assay [2] (uninfected Ghost(3) cells, lethal dose of Doxorubicin (500 nM)), “apoptosis at 48 hours; also recorded: by 24 hours, cells were apoptotic; also recorded: followed by apoptosis”. The “cellular location of hnRNP-K” value in assay [3] is on record as “nuclear hnRNP-K within 8 hours; also recorded: nuclear hnRNPK within 8 hours”.
